# Data published in PMC8989696, “Characterization of furathiocarb metabolism in in-vitro human liver microsomes and recombinant cytochrome P450 enzymes” (Toxicology Reports, 2022).
# Marks after values point to notes of the source that are not given here.
# Columns and labels:
# CYP2C19 = biological target: T1, CYP2C19 (Homo sapiens, UniProt P33261); assay: biochemical; format: in vitro ADME
# T1 construct: from tissue; host or cells: pooled human liver microsomes (n = 10 donors)
# Procedure: (§1) N-in-one (“cocktail”) assay for measuring major CYP activities simultaneously, [55], [56] was employed to investigate human CYP-furathiocarb inhibitory interactions in pooled human hepatic microsomes. Furathiocarb (ﬁnal concentrations in the incubation mixture were 1, 5, 25, 50, and 100 µM) was added to the incubation mixture. The N-in-one was used earlier for the study of pesticide interactions and the details of the incubations with furathiocarb are described in Supplementary materials.
# (§2) The kinetic parameters Vmax and Km were calculated by nonlinear regression. Bivariate linear Pearson’s correlation coefﬁcients (r2) were calculated between metabolite formations and model activities in the livers. GraphPad Prism 9 Software (Inc., San Diego, CA) Prism 9.0.0 (San Diego, CA) was used for kinetic parameters and correlation coefﬁcients analysis. The IC50 values were determined by linear regression analysis using OriginPro 2020 (MicroCal Software, Inc., Northampton, MA.
# (§3) N-in-one assay was performed to investigate human CYP-furathiocarb inhibitory interactions. Furathiocarb (ﬁnal concentrations in the incubation mixture were 1, 5, 25, 50, and 100 µM) was added to the incubation mixture.
# (§4) The N-in-one assay, analytical method and authentic standards have been described previously (Abass and Pelkonen 2013; Tolonen et al. 2007; Turpeinen et al. 2005). […]
# CYP1A2 = biological target: T2, CYP1A2 (Homo sapiens, UniProt P05177); assay: biochemical; format: in vitro ADME
# T2 construct: from tissue; host or cells: pooled human liver microsomes (n = 10 donors)
# T2 sequence (P05177 1-516): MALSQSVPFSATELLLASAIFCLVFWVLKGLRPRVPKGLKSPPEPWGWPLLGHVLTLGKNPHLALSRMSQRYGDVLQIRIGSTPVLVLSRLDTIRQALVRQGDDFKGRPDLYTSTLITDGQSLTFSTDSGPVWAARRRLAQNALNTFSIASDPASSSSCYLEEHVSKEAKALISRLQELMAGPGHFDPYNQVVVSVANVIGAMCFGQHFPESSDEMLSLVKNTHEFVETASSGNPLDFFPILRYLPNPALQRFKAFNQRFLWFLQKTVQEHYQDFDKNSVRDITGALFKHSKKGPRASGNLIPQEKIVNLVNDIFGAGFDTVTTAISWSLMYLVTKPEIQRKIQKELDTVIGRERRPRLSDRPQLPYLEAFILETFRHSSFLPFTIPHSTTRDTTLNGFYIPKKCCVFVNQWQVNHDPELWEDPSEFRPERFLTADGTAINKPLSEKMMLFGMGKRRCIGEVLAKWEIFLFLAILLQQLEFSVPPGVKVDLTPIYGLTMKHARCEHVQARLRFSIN
# Procedure: as §1, §2, §3, §4
# CYP2C9 = biological target: T3, CYP2C9 (Homo sapiens, UniProt P11712); assay: N-in-one CYP inhibition assay, pooled human hepatic microsomes, CYP2C9 (OH-TOL); format: in vitro ADME
# T3 construct: from tissue; host or cells: pooled human liver microsomes (n = 10 donors)
# T3 sequence (P11712 whole entry): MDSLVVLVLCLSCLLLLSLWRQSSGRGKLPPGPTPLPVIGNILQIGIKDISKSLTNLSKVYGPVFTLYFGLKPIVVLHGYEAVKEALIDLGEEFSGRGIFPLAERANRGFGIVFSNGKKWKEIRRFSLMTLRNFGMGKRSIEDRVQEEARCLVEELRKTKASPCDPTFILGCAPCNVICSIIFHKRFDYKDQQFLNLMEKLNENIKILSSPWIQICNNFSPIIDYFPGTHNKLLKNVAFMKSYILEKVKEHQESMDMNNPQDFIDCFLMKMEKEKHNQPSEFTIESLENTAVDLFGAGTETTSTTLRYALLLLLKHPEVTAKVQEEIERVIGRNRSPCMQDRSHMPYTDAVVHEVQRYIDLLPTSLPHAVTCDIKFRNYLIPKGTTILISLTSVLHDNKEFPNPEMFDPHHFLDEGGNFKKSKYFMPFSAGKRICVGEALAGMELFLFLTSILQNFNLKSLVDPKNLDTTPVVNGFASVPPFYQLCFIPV
# Procedure: as §1, §2, §3, §4
# [1] = Correlation of furathiocarb metabolite formation with model CYP substrate activities in ten human hepatic microsomes; format: in vitro ADME; conditions: 20 min, n = 10; for Linear correlation coefficient, Carbofuran metabolic pathway: 50 μM furathiocarb
# Procedure: A set of ten livers was used to assess the metabolism of furathiocarb in the individual livers as well as to correlate the activities with a model CYP substrate. (Detailed information is available as Supplementary materials).
# as §2
# Metabolites of bupropion, amodiaquine, tolbutamide, omeprazole, dextromethorphan, chlorzoxazone, and midazolam were analyzed by a Shimadzu VP series high-performance liquid chromatograph with an autoinjector (Shimadzu, Kyoto, Japan). The analytical column was a Waters Symmetry C18 (3.9 mm x 150 mm, particle size of 5 µm) together with a Lichospher 100 RP-18 4.0 mm x 4.0 mm precolumn (Merck, Darmstadt, Germany). Chromatographic methods were isocratic, except in the case of omeprazole when a linear gradient elution from 15 to 35% A in 8 min was used. Mobile phases were pumped at a flow rate of 1.0 ml/min. The injection volume used was 20 µl. The concentrations of metabolites were calculated from peak height ratios of the UV chromatograms on the basis of standard calibration curves of authentic metabolites. Metabolites of ethoxyresorufin, ethoxycoumarin, coumarin, and pentoxyresorufin were analyzed fluorometrically. […] Fresh […] dilutions from stock solution of DMSO were used for each assay. The final amount of DMSO was 1% in incubation mixtures. For chlorzoxazone 6-hydroxylation the solvent was evaporated because of the potent inhibition effect of DMSO on CYP2E1, and the residue was diluted with 10 µl of lipid solution. Lipid solution was prepared by adding 8 µl of dimethyldioctadecylammonium-bromide in chloroform (100 mg/ml) to 200 µl L-α-phosphatidylethanolamine dioleyl [C18:1 (cis)-9] in chloroform. This mixture was evaporated with a stream of nitrogen flow, 2 ml of water was added, and the final mixture was sonicated (Branson Sonifier 250 GWB) on an ice bath for 10 min by using 50% power.
# Cytochrome P450 enzyme activity characterizations as well as incubations with individual human hepatic microsomes were performed at the same time. A bank of 10 livers was used to assess the metabolism of furathiocarb in individual livers as well as to correlate the activities with model P450 substrate activities. A correlation was performed between the formation of furathiocarb metabolites and each CYP activity across the human liver set. For all data points the mean of duplicate incubations were used. […] Bivariate linear Pearson’s correlation coefficients (r) were calculated between metabolite formations and model activities in livers. […]
# [2] = 7 cases of acute fatalities, cited from earlier work
# T1 sequence (P33261 whole entry): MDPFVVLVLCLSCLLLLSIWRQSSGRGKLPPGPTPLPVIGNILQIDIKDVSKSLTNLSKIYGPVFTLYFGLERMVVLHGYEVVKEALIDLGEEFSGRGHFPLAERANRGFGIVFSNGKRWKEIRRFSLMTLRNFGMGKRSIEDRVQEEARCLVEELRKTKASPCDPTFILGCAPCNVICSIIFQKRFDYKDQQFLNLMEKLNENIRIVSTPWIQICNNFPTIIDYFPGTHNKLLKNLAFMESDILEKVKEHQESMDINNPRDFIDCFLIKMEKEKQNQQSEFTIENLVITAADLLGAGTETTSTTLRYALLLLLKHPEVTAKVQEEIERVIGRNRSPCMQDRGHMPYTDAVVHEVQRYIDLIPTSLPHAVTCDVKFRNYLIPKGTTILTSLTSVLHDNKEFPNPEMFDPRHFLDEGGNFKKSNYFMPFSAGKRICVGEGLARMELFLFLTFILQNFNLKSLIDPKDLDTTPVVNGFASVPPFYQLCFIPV
smiles,measurement,setting,value
"CCCCOC(=O)N(C)SN(C)C(=O)Oc1cccc2c1OC(C)(C)C2 [furathiocarb, Furathiocarb]",IC50,CYP2C19,16.5 to 18.5 µM
same,IC50,CYP1A2,16.5 to 18.5 µM
same,IC50,CYP2C9,16.5 to 18.5 µM
same,"Linear correlation coefficient, Carbofuran metabolic pathway",[1]; vs CYP1A1/2 7-Ethoxyresorufin-O-deethylation (EROD),0.2493
same,"Linear correlation coefficient, Carbofuran metabolic pathway",[1]; vs CYP2A6 Coumarin-7-hydroxylation (OH-COU),0.2303
same,"Linear correlation coefficient, -OH/SO4 furathiocarb Metabolite B","[1]; vs CYP2A6 Coumarin-7-hydroxylation (OH-COU), 100 μM furathiocarb",0.1259
same,"Linear correlation coefficient, Carbofuran metabolic pathway",[1]; vs CYP2B6 Bupropion hydroxylation (OH-BUP),0.0023
same,"Linear correlation coefficient, Carbofuran metabolic pathway",[1]; vs CYP2C8 Amodiaquine-desethylation (deEt-AMO),0.1814
same,"Linear correlation coefficient, Carbofuran metabolic pathway",[1]; vs CYP2C9 Tolbutamide hydroxylation (OH-TOL),0.1126
same,"Linear correlation coefficient, Carbofuran metabolic pathway","[1]; vs CYP2C19 Omeprazole-5-hydroxylation (5-OH-OME), P < 0.0001",0.9074 **
same,"Linear correlation coefficient, -OH/SO4 furathiocarb Metabolite A","[1]; vs CYP2C19 Omeprazole-5-hydroxylation (5-OH-OME), 100 μM furathiocarb",0.4683
same,"Linear correlation coefficient, Carbofuran metabolic pathway",[1]; vs CYP2D6 Dextromethorphan-O-desmethylation (O-dem-DEX),0.0059
same,"Linear correlation coefficient, Carbofuran metabolic pathway",[1]; vs CYP2E1 Chlorzoxazone-6-hydroxylation (OH-CLZ),0.1101
same,"Linear correlation coefficient, Carbofuran metabolic pathway","[1]; vs CYP3A4 Midazolam-1'-hydroxylation (1-OH-MDZ), P = 0.0001",0.8513 *
same,"Linear correlation coefficient, -OH/SO4 furathiocarb Metabolite B","[1]; vs CYP3A4 Midazolam-1'-hydroxylation (1-OH-MDZ), 100 μM furathiocarb",0.3282
same,"Linear correlation coefficient, Carbofuran metabolic pathway","[1]; vs CYP3A4 Omeprazole sulfoxidation (SO2-OME), P < 0.0001",0.9632 **
same,"Linear correlation coefficient, -OH/SO4 furathiocarb Metabolite B","[1]; vs CYP3A4 Omeprazole sulfoxidation (SO2-OME), 100 μM furathiocarb",0.2793
same,Concentrations in the blood (average),[2]; n = 7,3600 ng/mL
same,Concentrations in the blood (range),[2],100 to 21600 ng/mL
